# Article PMC8948939 (Pharmaceutics, 2022)
# Experiments:
# [1] = target: T1, CYP2C9 (Homo sapiens, UniProt P11712); assay: in vitro; details: microsomes, pH 7.5
# Method: (§1) Supplementary Section S1. Marker reactions for CYP2C19, CYP2C9 and CYP3A4 […]
# (§2) for CYP3A4 [1,2] were used to determine (i) intersystem extrapolation factors (ISEF), (ii) […]
# (§3) (i) Experiments for the determination of Michaelis-Menten kinetics in HLM were performed at protein concentrations of 0.02, 0.04 and 0.05 mg/mL for the marker reactions of CYP2C19, CYP2C9 and CYP3A4 (n = 3 each), respectively. Two samples were taken from each incubation after 15 and 25 min for investigations on CYP2C19, after 5 and 10 min for CYP2C9 and after 7 and 12 min for CYP3A4, respectively. […]
# (§4) were applied as substrate concentrations. […]
# [2] = target: CYP2C9 in human liver microsomes (HLM) (Homo sapiens, UniProt P11712); assay: in vitro; details: pH 7.5
# CYP2C9 in human liver microsomes (HLM), sequence (P11712 whole entry): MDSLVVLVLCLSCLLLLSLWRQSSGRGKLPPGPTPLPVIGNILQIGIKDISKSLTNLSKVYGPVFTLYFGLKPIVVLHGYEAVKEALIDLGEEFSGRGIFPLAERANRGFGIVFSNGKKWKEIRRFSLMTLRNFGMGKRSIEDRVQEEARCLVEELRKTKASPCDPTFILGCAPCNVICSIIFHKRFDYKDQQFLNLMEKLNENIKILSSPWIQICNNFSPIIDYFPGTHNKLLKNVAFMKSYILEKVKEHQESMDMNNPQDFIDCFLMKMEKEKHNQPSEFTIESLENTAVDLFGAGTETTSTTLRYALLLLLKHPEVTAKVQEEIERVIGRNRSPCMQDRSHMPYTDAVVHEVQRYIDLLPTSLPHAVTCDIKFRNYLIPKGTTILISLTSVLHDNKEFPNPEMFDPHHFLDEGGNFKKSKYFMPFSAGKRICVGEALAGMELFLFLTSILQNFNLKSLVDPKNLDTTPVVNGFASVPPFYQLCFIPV
# Method: as §1, §2, §3, §4
# [3] = target: T1, CYP2C9; details: recombinant enzyme, pH 7.5
# Method: as §1, §2, §3
# (§5) were applied as substrate concentrations.
# (§6) For investigations in rhCYP concentrations of 2.5 pmol/mL rhCYP2C19 (n = 3), […]
# (§7) respectively. […]
# [4] = target: T2, CYP3A4 (Homo sapiens, UniProt P08684); assay: Michaelis-Menten kinetics of midazolam 1-hydroxylation (CYP3A4 marker reaction) in HLM; format: in vitro ADME; set-up: tissue Corning Inc; host or cells: pooled human liver microsomes (150 donors); details: human, human liver microsomes
# Text: (§8) Towards the Elucidation of the Pharmacokinetics of
# (§9) Josefine Schulz 1, Antonia Thomas 1, Ayatallah Saleh 1,2, Gerd Mikus 1,3, Charlotte Kloft 1,† and Robin Michelet 1,*,† 1 Department of Clinical Pharmacy & Biochemistry, Institute of Pharmacy, Freie Universitaet Berlin, Kelchstraße 31, 12169 Berlin, Germany
# (§10) 2 Graduate Research Training Program PharMetrX, 12169 Berlin/Potsdam, Germany 3 Department of Clinical Pharmacology and Pharmacoepidemiology, University Hospital Heidelberg, Im Neuenheimer Feld 410, 69120 Heidelberg, Germany
# (§11) * Correspondence: robin.michelet@fu-berlin.de; Tel.: +49-30-838-50659
# (§12) † These authors contributed equally to this work
# as §1, §2, §3, §5, §6, §7
# Target sequence in this assay (P08684 2-503 limits assumed): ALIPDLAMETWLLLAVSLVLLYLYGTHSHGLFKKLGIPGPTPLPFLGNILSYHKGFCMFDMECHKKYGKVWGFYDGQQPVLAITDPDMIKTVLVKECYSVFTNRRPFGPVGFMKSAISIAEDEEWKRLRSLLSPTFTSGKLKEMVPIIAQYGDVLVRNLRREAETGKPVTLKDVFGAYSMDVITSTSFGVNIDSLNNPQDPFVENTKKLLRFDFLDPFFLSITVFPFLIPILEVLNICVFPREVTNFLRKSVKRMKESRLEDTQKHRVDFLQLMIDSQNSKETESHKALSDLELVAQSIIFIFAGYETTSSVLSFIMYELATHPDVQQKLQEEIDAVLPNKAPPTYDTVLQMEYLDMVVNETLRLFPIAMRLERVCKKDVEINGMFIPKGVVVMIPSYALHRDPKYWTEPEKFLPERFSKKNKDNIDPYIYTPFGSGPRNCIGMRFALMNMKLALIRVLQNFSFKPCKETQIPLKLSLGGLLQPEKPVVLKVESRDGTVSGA
# [5] = target: T3, CYP3A4 in human liver microsomes (HLM) (Homo sapiens, UniProt P08684); assay: as above; format: in vitro ADME; details: midazolam 1-hydroxylation; HLM
# T3 construct: tissue Corning Inc; host or cells: pooled human liver microsomes (150 donors)
# T3 sequence (P08684 2-503 limits assumed): as above
# Text: as §8, §9, §10, §11, §12, §1, §2, §3, §5, §6, §7
# [6] = target: T2, CYP3A4; assay: Michaelis-Menten kinetics of midazolam 1-hydroxylation by rhCYP3A4; format: in vitro ADME; set-up: purchased Corning Inc
# Text: as §8, §9, §10, §11, §12, §1, §2, §3, §5, §6
# Target sequence in this assay (P08684 whole entry): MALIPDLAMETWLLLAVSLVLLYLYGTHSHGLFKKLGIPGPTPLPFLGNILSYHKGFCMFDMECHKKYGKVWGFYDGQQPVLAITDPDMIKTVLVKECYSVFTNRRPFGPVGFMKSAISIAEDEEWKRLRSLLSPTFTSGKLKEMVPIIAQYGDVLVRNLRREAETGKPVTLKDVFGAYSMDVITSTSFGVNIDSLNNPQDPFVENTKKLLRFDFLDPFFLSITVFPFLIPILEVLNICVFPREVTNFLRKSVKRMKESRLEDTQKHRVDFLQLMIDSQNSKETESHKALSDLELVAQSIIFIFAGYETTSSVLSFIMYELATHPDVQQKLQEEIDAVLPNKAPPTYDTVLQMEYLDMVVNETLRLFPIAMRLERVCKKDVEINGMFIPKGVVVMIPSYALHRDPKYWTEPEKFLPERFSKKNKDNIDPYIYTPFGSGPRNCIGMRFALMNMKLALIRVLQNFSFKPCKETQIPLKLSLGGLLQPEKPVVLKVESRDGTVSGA
# respectively. Sampling time points were identical to those in HLM as were substrate […]
# concentration of 0.2 mg/mL for 15 and 25 min (n = 2). Each probe substrate was incubated in the presence of each inhibitor. […]
# were performed at concentrations of 0.2, 0.08 and 0.05 mg/mL HLM for CYP2C19, CYP2C9 and CYP3A4, respectively. IC50 and IC50 shift assays were performed at substrate […]
# Reaction times were identical to those described […]
# [7] = midazolam 1-hydroxylation, rhCYP3A4
# T1 sequence (P11712 whole entry): as the sequence (P11712 whole entry) above
SMILES,microsomal CLint [1],"Vmax,HLM (95% CI) [2]","CLint, rhCYP [3]",Km [4],"microsomal CLint ([4]; pH 7.5, midazolam 1-hydroxylation, HLM)","Vmax,HLM (95% CI) [5]","Km ([6]; human, recombinant human CYP3A4 (rhCYP3A4))","CLint, rhCYP [6, 7]","Vmax,rhCYP (95% CI) [6, 7]"
"O=C(O)Cc1ccccc1Nc1c(Cl)cccc1Cl [Diclofenac, diclofenac]",408 µL/min/mg,1693 pmol/min/mg,5.89 µL/min/pmol,–,–,–,–,–,–
"Cc1ncc2n1-c1ccc(Cl)cc1C(c1ccccc1F)=NC2 [Midazolam, midazolam]",–,–,–,4.45 µM,126 µL/min/mg,559 pmol/min/mg,1.96 µM,0.850 µL/min/pmol,1.67 pmol/min∙pmol
